# According to patent US8202866B2, “Ortho-aminoanilides for the treatment of cancer” (Hoffmann-La Roche Inc., priority 2008, dated 2012):
# Columns and labels:
# [1] = test system: SMMC-7721 liver cancer cells; assay: Antiproliferative activity, in vitro growth inhibition assay (MTS/WST), SMMC-7721; type: cell-based; conditions: Homo sapiens, 72 hours; for IC90: concentration required for 90% growth inhibition, read-out: GI90 (micromolar) SMMC-7721; for GI50: read-out: GI50 (micromolar) SMMC-7721
# Protocol: The novel compounds of the present invention were tested for their ability to inhibit growth of various cancer cell lines using in vitro growth inhibition assays described below.
# Cells were seeded in 96-well culture plates (200 microliters/well at different seeding concentrations depending on cell type) and incubated overnight at 37 degrees Celsius in 5% CO2. After adding compound dilutions to the cells (DMSO concentration kept below 0.5%), the cells were incubated at 37 degrees Celsius in 5% CO2 for 72 hours. The effects on proliferation were determined by addition of MTS reagent (Promega) according to the manufacturer's instruction, followed by incubation for 2 hours at 37 degrees Celsius in 5% CO2, and finally recording the absorbance at 490 nm using an ELISA plate reader.
# Similar to MTS assay except that the developer is the CCK-8 reagent (Dojindo) and the plate reader is set to 450 nm absorbance.
# GI50 and GI90 values against SMMC-7721 liver cancer cells for specific representative compounds can be found in Table 7.
# [2] = test system: p21 promoter-luciferase construct in HeLa cells; assay: p21 reporter gene induction assay, HeLa cells transfected with p21 promoter-luciferase construct; type: cell-based; conditions: compound at 3 micromolar; 15 hours incubation; relative to SNDX-275 (=100%)
# Protocol: The novel compounds of the present invention were tested for their ability to induce p21 gene expression using a reporter gene assay involving HeLa cells transfected with a p21 promoter-luciferase construct. The p21 promoter contained the Sp1/Sp3 binding site for HDAC but not the upstream p53 binding site. Briefly, the day before transfection, HeLa cells were seeded at 11,000 cells/well in a 96-well culture plate and incubated at 37 degrees Celsius in 5% CO2 overnight. For transfection, the medium was removed and replaced with 100 microliters/well transfection media previously prepared as follows: 5 microliters serum-free DMEM, 0.15 microliters Fugene 6 reagent, 40 ng p21-luc, 10 ng GFP were mixed gently and incubated at room temperature for 30 minutes; then 98 microliters DMEM (with 10% FBS, 1% penicillin and streptomycin) was added to the DNA:Fugene 6 reagent complex and mixed gently. After incubating the cells for 24 hours at 37 degrees Celsius in 5% CO2, fresh media and test compounds were added to the wells and the cells further incubated for 15 hours at 37 degrees Celsius in 5% CO2. Cells were lysed by adding 80 microliters/well of a cell culture lysis reagent (Promega). 50 microliters of each lysate was taken for GFP detection using an excitation wavelength of 486 nm and detection at 527 nm. 100 microliters Luciferase assay reagent (Promega) was then added to every 20 microliters cell lysate for luminometer detection. […] Induction activity for specific representative compounds can be found in Table 7.
SMILES,IC90 [1] [µM],GI50 [1] [µM],p21 (RP3): relative induction potency compared with SNDX-275 [2] [%]
"Nc1ccccc1NC(=O)/C=C/c1ccc(C(CCCN2C[C@@H]3C[C@H]2CO3)C(=O)Nc2ccc(Br)cc2)cc1 (stereo partly drawn) [Example 9-2, 2-{4-[(E)-2-(2-Amino-phenylcarbamoyl)-vinyl]-phenyl}-5-(1S,4S)-2-oxa-5-aza-bicyclo[2.2.1]hept-5-yl-pentanoic acid (4-bromo-phenyl)-amide]",1.5,0.7,74
"Nc1ccccc1NC(=O)/C=C/c1ccc(C(CCN2CCOCC2)C(=O)Nc2ccc(Br)cc2)cc1 (stereo not drawn) [Example 6-2, 2-{4-[(E)-2-(2-Amino-phenylcarbamoyl)-vinyl]-phenyl}-N-(4-bromo-phenyl)-4-morpholin-4-yl-butyramide]",3.1,1,233
"CN1CCCC1CCC(C(=O)Nc1ccc(Br)cc1)c1ccc(/C=C/C(=O)Nc2ccccc2N)cc1 (stereo not drawn) [Example 25, 2-{4-[(E)-2-(2-Amino-phenylcarbamoyl)-vinyl]-phenyl}-N-(4-bromo-phenyl)-4-(1-methyl-pyrrolidin-2-yl)-butyramide]",2.5,0.8,199
"Nc1ccccc1NC(=O)/C=C/c1ccc(C(CCCN2CCCC(O)C2)C(=O)Nc2ccc(Br)cc2)cc1 (stereo not drawn) [Example 9-5, 2-{4-[(E)-2-(2-Amino-phenylcarbamoyl)-vinyl]-phenyl}-5-(3-hydroxy-piperidin-1-yl)-pentanoic acid (4-bromo-phenyl)-amide]",3.2,1.1,127
"Nc1ccccc1NC(=O)c1ccc(CNC(=O)OCc2cccnc2)cc1 [SNDX-275, reference compound]",10.5,3.5,100
"Nc1ccccc1NC(=O)/C=C/c1ccc(C(CCN2C[C@@H]3C[C@H]2CO3)C(=O)Nc2ccc(Br)cc2)cc1 (stereo partly drawn) [Example 6, 2-{4-[(E)-2-(2-Amino-phenylcarbamoyl)-vinyl]-phenyl}-N-(4-bromo-phenyl)-4-(1S,4S)-2-oxa-5-aza-bicyclo[2.2.1]hept-5-yl-butyramide]",2.7,0.8,212
"CCN(CC)C1CCN(CC(C(=O)Nc2ccc(Cl)cc2)c2ccc(/C=C/C(=O)Nc3ccccc3N)cc2)C1 (stereo not drawn) [Example 31, (E)-N-(2-Amino-phenyl)-3-{4-[1-(4-chloro-phenylcarbamoyl)-2-(3-diethylamino-pyrrolidin-1-yl)-ethyl]phenyl}-acrylamide]",3.3,0.9,243
"Nc1ccccc1NC(=O)/C=C/c1ccc(C(CCCN2CCCCC2)C(=O)Nc2ccc(Br)cc2)cc1 (stereo not drawn) [Example 9-3, 2-{4-[(E)-2-(2-Amino-phenylcarbamoyl)-vinyl]-phenyl}-5-piperidin-1-yl-pentanoic acid (4-bromo-phenyl)-amide]",2.1,0.8,305
"Nc1ccccc1NC(=O)/C=C/c1ccc(C(CCCN2CCOCC2)C(=O)Nc2ccc(Br)cc2)cc1 (stereo not drawn) [Example 9, 2-{4-[(E)-2-(2-Amino-phenylcarbamoyl)-vinyl]phenyl}-5-morpholin-4-yl-pentanoic acid (4-bromo-phenyl)-amide]",2.9,1.3,253
"CC(C)c1ccc(NC(=O)C(CCCN2C[C@@H]3C[C@H]2CO3)c2ccc(/C=C/C(=O)Nc3ccccc3N)cc2)cc1 (stereo partly drawn) [Example 9-4, 2-{4-[(E)-2-(2-Amino-phenylcarbamoyl)-vinyl]-phenyl}-5-(1S,4S)-2-oxa-5-aza-bicyclo[2.2.1]hept-5-yl-pentanoic acid (4-isopropyl-phenyl)-amide]",4.9,1.4,155
